# Laboratory results from ChEMBL document CHEMBL1201862, “PubChem BioAssay data set” (2004).
#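 Each compound was tested at five concentrations against cells in 96-well plates for 48 hours. GI50: concentration for 50% inhibition of growth.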 The source made the active and inactive calls. Cut-off read from the data, not from the text of the source: active = GI50 up to about 1.1 µM and inactive = higher. Where a SMILES comes first, the peptide text is derived from it. [ ]: non-standard residue; d: D form. pGlu = O=C1CC[CH](C(=O)O)N1
# Key:
# Assay in all cases: DTP human tumour cell line panel, 48 h
# A498 = test system: A498
# SNB-19 = test system: SNB-19
# 786-0 = test system: 786-0
# Hs-578T = test system: Hs-578T
# HT-29 = test system: HT-29
# ACHN = test system: ACHN
# HOP-92 = test system: HOP-92
# NCI-H226 = test system: NCI-H226
# NCI-H522 = test system: NCI-H522
# DU-145 = test system: DU-145
# EKVX = test system: EKVX
# UACC-62 = test system: UACC-62
# KM12 = test system: KM12
# U-251 = test system: U-251
# SK-MEL-28 = test system: SK-MEL-28
# SR = test system: SR
# SK-OV-3 = test system: SK-OV-3
# CCRF-CEM = test system: CCRF-CEM
# UACC-257 = test system: UACC-257
Structure (SMILES),GI50 (A498),GI50 (SNB-19),GI50 (786-0),GI50 (Hs-578T),GI50 (HT-29),GI50 (ACHN),GI50 (HOP-92),GI50 (NCI-H226),GI50 (NCI-H522),GI50 (DU-145),GI50 (EKVX),GI50 (UACC-62),GI50 (KM12),GI50 (U-251),GI50 (SK-MEL-28),GI50 (SR),GI50 (SK-OV-3),GI50 (CCRF-CEM),GI50 (UACC-257)
CC(NC(=O)C1CCC(=O)N1)C(=O)N1CCCC1C(N)=O (stereo not drawn) ([pGlu]-Ala-Pro-NH2; configuration not given here),31.5 µM (inactive),> 100 µM (inactive),61.7 µM (inactive),> 100 µM (inactive),> 100 µM (inactive),> 100 µM (inactive),> 100 µM (inactive),> 100 µM (inactive),> 100 µM (inactive),> 100 µM (inactive),> 100 µM (inactive),> 100 µM (inactive),> 100 µM (inactive),> 100 µM (inactive),> 100 µM (inactive),> 100 µM (inactive),> 100 µM (inactive),> 100 µM (inactive),–
CC(C)c1ccc2c(c1)/C(=C1/Nc3ccccc3C1=O)C(=O)N2,2.34 µM (inactive),13 µM (inactive),3.52 µM (inactive),7.64 µM (inactive),26.8 µM (inactive),3.71 µM (inactive),4.58 µM (inactive),3.62 µM (inactive),25.5 µM (inactive),15.2 µM (inactive),5.7 µM (inactive),14.9 µM (inactive),0.0973 µM (active),10.6 µM (inactive),> 100 µM (inactive),18.4 µM (inactive),3.75 µM (inactive),27.3 µM (inactive),61.8 µM (inactive)
CNCCCNC1(c2cc3ccccc3s2)CCCCC1,3.37 µM (inactive),12.1 µM (inactive),3.47 µM (inactive),13.2 µM (inactive),2.46 µM (inactive),14 µM (inactive),2.39 µM (inactive),19.5 µM (inactive),5.64 µM (inactive),11.9 µM (inactive),13.3 µM (inactive),1.94 µM (inactive),5.61 µM (inactive),4.65 µM (inactive),1.64 µM (inactive),1.52 µM (inactive),15.7 µM (inactive),1.66 µM (inactive),1.76 µM (inactive)
CN(C)CCn1c(=O)nc2c3c(c([N+](=O)[O-])ccc31)Nc1ccc(O)cc1-2,6.32 µM (inactive),2.03 µM (inactive),1.67 µM (inactive),3.95 µM (inactive),0.959 µM (active),3.44 µM (inactive),2.69 µM (inactive),3.37 µM (inactive),1.43 µM (inactive),4.36 µM (inactive),8.04 µM (inactive),4.5 µM (inactive),5.47 µM (inactive),1.53 µM (inactive),14.8 µM (inactive),1.12 µM (inactive),15.3 µM (inactive),0.948 µM (active),8.28 µM (inactive)
CNC(=S)N/N=C/c1cccc(C)n1,20.7 µM (inactive),51.9 µM (inactive),24.6 µM (inactive),> 91.8 µM (inactive),36 µM (inactive),28.2 µM (inactive),55.8 µM (inactive),> 50.7 µM (inactive),27.2 µM (inactive),28.8 µM (inactive),46.6 µM (inactive),23.6 µM (inactive),61.1 µM (inactive),26.1 µM (inactive),56.5 µM (inactive),> 41.9 µM (inactive),37.2 µM (inactive),23.4 µM (inactive),32.7 µM (inactive)
O=c1[nH]nc(-c2ccc([N+](=O)[O-])cc2)[nH]1,> 100 µM (inactive),> 100 µM (inactive),> 100 µM (inactive),> 100 µM (inactive),> 100 µM (inactive),> 100 µM (inactive),> 100 µM (inactive),> 100 µM (inactive),> 100 µM (inactive),> 100 µM (inactive),45.4 µM (inactive),> 100 µM (inactive),> 100 µM (inactive),> 100 µM (inactive),> 100 µM (inactive),> 100 µM (inactive),–,> 100 µM (inactive),> 100 µM (inactive)
c1cc2c(cc1C(N1CCNCC1)N1CCNCC1)OCO2,> 100 µM (inactive),> 100 µM (inactive),> 100 µM (inactive),> 100 µM (inactive),> 100 µM (inactive),> 100 µM (inactive),> 100 µM (inactive),> 100 µM (inactive),> 100 µM (inactive),> 100 µM (inactive),> 100 µM (inactive),> 100 µM (inactive),> 100 µM (inactive),> 100 µM (inactive),> 100 µM (inactive),9.64 µM (inactive),> 100 µM (inactive),–,> 100 µM (inactive)
CCCCCC(=O)CCCCCCCC(O)CC(=O)OCC (stereo not given),> 100 µM (inactive),> 100 µM (inactive),> 100 µM (inactive),> 100 µM (inactive),> 100 µM (inactive),> 100 µM (inactive),49.1 µM (inactive),> 100 µM (inactive),> 100 µM (inactive),> 100 µM (inactive),–,–,> 100 µM (inactive),64.3 µM (inactive),> 100 µM (inactive),> 100 µM (inactive),–,> 100 µM (inactive),> 100 µM (inactive)
Cc1cc(C)n(C(C)(C(=O)Cc2ccccc2)n2nc(C)cc2C)n1,> 100 µM (inactive),> 100 µM (inactive),> 100 µM (inactive),> 100 µM (inactive),> 100 µM (inactive),> 100 µM (inactive),> 100 µM (inactive),> 100 µM (inactive),> 100 µM (inactive),> 100 µM (inactive),> 100 µM (inactive),> 100 µM (inactive),> 100 µM (inactive),> 100 µM (inactive),> 100 µM (inactive),> 100 µM (inactive),> 100 µM (inactive),–,–
CC(C)(C)CC(C)(C)NC(=S)NO,> 100 µM (inactive),> 100 µM (inactive),> 100 µM (inactive),> 100 µM (inactive),> 100 µM (inactive),> 100 µM (inactive),63.7 µM (inactive),> 100 µM (inactive),> 100 µM (inactive),> 100 µM (inactive),> 100 µM (inactive),> 100 µM (inactive),> 100 µM (inactive),–,> 100 µM (inactive),> 100 µM (inactive),> 100 µM (inactive),> 100 µM (inactive),> 100 µM (inactive)
Cc1ccc(-c2cc(-c3ccco3)c(C#N)c(=S)[nH]2)cc1,36.3 µM (inactive),32.1 µM (inactive),77.3 µM (inactive),38.5 µM (inactive),92.3 µM (inactive),35.6 µM (inactive),99.5 µM (inactive),31.5 µM (inactive),44.2 µM (inactive),93.5 µM (inactive),90.6 µM (inactive),26.8 µM (inactive),63.2 µM (inactive),21.4 µM (inactive),20.8 µM (inactive),42.5 µM (inactive),39.9 µM (inactive),38.3 µM (inactive),–
CC(C)/C=N\N1C(N)=C(C#N)C(C#N)(C#N)C1C(C)C (stereo not given),51.3 µM (inactive),> 100 µM (inactive),60.7 µM (inactive),88.5 µM (inactive),27.5 µM (inactive),65.3 µM (inactive),–,55.6 µM (inactive),62.1 µM (inactive),40 µM (inactive),> 100 µM (inactive),26.4 µM (inactive),44.6 µM (inactive),39.6 µM (inactive),47 µM (inactive),29.3 µM (inactive),> 100 µM (inactive),36.2 µM (inactive),47.5 µM (inactive)
COc1ccc(OC)c([N+](=O)[O-])c1-c1nc2sc(C)cn2c1/C=N/N=C(N)N,34.7 µM (inactive),–,44.3 µM (inactive),31 µM (inactive),25.8 µM (inactive),41 µM (inactive),17.5 µM (inactive),36.1 µM (inactive),20 µM (inactive),30.3 µM (inactive),82.2 µM (inactive),22.7 µM (inactive),20.5 µM (inactive),31.6 µM (inactive),21.4 µM (inactive),< 0.01 µM (active),–,42.2 µM (inactive),18 µM (inactive)
CN/N=C(\C)C(CN(C)C)C(c1ccccc1)c1c(O)c2ccccc2oc1=O (stereo not given),> 100 µM (inactive),> 100 µM (inactive),> 100 µM (inactive),> 100 µM (inactive),> 100 µM (inactive),> 100 µM (inactive),0.0574 µM (active),> 100 µM (inactive),> 100 µM (inactive),> 100 µM (inactive),> 100 µM (inactive),31.3 µM (inactive),> 100 µM (inactive),> 100 µM (inactive),> 100 µM (inactive),67.9 µM (inactive),–,73.6 µM (inactive),> 100 µM (inactive)
O=[N+]([O-])C(C(Cl)=C(Cl)Cl)=C(n1cncn1)n1cncn1,> 100 µM (inactive),> 100 µM (inactive),18.6 µM (inactive),27 µM (inactive),19 µM (inactive),19.3 µM (inactive),–,> 100 µM (inactive),14 µM (inactive),16.5 µM (inactive),24.3 µM (inactive),39.9 µM (inactive),50.4 µM (inactive),34.6 µM (inactive),32.6 µM (inactive),31.2 µM (inactive),> 100 µM (inactive),3.37 µM (inactive),31.3 µM (inactive)
